# According to PubChem BioAssay (NCI):
#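 How tested: cells in 96-well plates exposed to compound for 48 hours at five concentrations. GI50: concentration for 50% inhibition of growth. The concentration for full growth arrest is given as TGI.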
# Assays:
# Experiment in all cases: growth of human tumour cells (NCI), 48 h
# SK-MEL-28 melanoma = test system: SK-MEL-28 melanoma
# SNB-75 CNS = test system: SNB-75 CNS
# U251 CNS = test system: U251 CNS
# HT29 colon = test system: HT29 colon
# RXF 393 renal = test system: RXF 393 renal
# NCI-H460 lung = test system: NCI-H460 lung
# LOX IMVI melanoma = test system: LOX IMVI melanoma
# IGROV1 ovarian = test system: IGROV1 ovarian
# ACHN renal = test system: ACHN renal
# EKVX NSCLC = test system: EKVX NSCLC
# HL-60(TB) leukemia = test system: HL-60(TB) leukemia
# SK-MEL-2 melanoma = test system: SK-MEL-2 melanoma
# SNB-19 CNS = test system: SNB-19 CNS
# A549 NSCLC = test system: A549 NSCLC
# OVCAR-4 ovarian = test system: OVCAR-4 ovarian
# OVCAR-3 ovarian = test system: OVCAR-3 ovarian
# HOP-62 NSCLC = test system: HOP-62 NSCLC
# KM12 colon = test system: KM12 colon
# HCC-2998 colon = test system: HCC-2998 colon
# DU-145 prostate = test system: DU-145 prostate
# SF-295 CNS = test system: SF-295 CNS
# M14 melanoma = test system: M14 melanoma
# NCI/ADR-RES ovarian = test system: NCI/ADR-RES ovarian
# HCT-15 colon = test system: HCT-15 colon
# SF-268 CNS = test system: SF-268 CNS
# SF-539 CNS = test system: SF-539 CNS
# 786-0 renal = test system: 786-0 renal
# MALME-3M melanoma = test system: MALME-3M melanoma
# UO-31 renal = test system: UO-31 renal
# MOLT-4 leukemia = test system: MOLT-4 leukemia
# SW-620 colon = test system: SW-620 colon
# COLO 205 colon = test system: COLO 205 colon
# RPMI-8226 leukemia = test system: RPMI-8226 leukemia
# SK-MEL-5 melanoma = test system: SK-MEL-5 melanoma
# UACC-62 melanoma = test system: UACC-62 melanoma
# OVCAR-5 ovarian = test system: OVCAR-5 ovarian
# NCI-H522 lung = test system: NCI-H522 lung
# SN12C renal = test system: SN12C renal
# CAKI-1 renal = test system: CAKI-1 renal
# OVCAR-8 ovarian = test system: OVCAR-8 ovarian
# MCF7 breast = test system: MCF7 breast
# UACC-257 melanoma = test system: UACC-257 melanoma
# HOP-92 NSCLC = test system: HOP-92 NSCLC
# PC-3 prostate = test system: PC-3 prostate
# HS 578T breast = test system: HS 578T breast
# K-562 leukemia = test system: K-562 leukemia
# HCT-116 colon = test system: HCT-116 colon
# T-47D breast = test system: T-47D breast
# MDA-MB-231 breast = test system: MDA-MB-231 breast
# SK-OV-3 ovarian = test system: SK-OV-3 ovarian
# BT-549 breast = test system: BT-549 breast
# MDA-MB-435 = test system: MDA-MB-435
# CCRF-CEM leukemia = test system: CCRF-CEM leukemia
# NCI-H226 lung = test system: NCI-H226 lung
# A498 renal = test system: A498 renal
# TK-10 renal = test system: TK-10 renal
smiles,measurement,setting,value
C#Cc1nc(C2=C(C)/C(=N/OCc3ccccc3)CC2)cs1,GI50,SK-MEL-28 melanoma,49.2 µM
same,TGI,SK-MEL-28 melanoma,> 100 µM
same,GI50,SNB-75 CNS,> 100 µM
same,TGI,SNB-75 CNS,> 100 µM
same,GI50,U251 CNS,50.1 µM
same,TGI,U251 CNS,> 100 µM
same,GI50,HT29 colon,31 µM
same,TGI,HT29 colon,> 100 µM
same,GI50,RXF 393 renal,2.76 µM
same,TGI,RXF 393 renal,21.7 µM
same,GI50,NCI-H460 lung,44.2 µM
same,TGI,NCI-H460 lung,> 100 µM
same,GI50,LOX IMVI melanoma,0.199 µM
same,TGI,LOX IMVI melanoma,0.444 µM
same,GI50,IGROV1 ovarian,1.97 µM
same,TGI,IGROV1 ovarian,4.29 µM
same,GI50,ACHN renal,2.91 µM
same,TGI,ACHN renal,> 100 µM
same,GI50,EKVX NSCLC,> 100 µM
same,TGI,EKVX NSCLC,> 100 µM
same,GI50,HL-60(TB) leukemia,17.5 µM
same,TGI,HL-60(TB) leukemia,40.9 µM
same,GI50,SK-MEL-2 melanoma,61.8 µM
same,TGI,SK-MEL-2 melanoma,> 100 µM
same,GI50,SNB-19 CNS,57.1 µM
same,TGI,SNB-19 CNS,> 100 µM
same,GI50,A549 NSCLC,43.4 µM
same,TGI,A549 NSCLC,> 100 µM
same,GI50,OVCAR-4 ovarian,50.9 µM
same,TGI,OVCAR-4 ovarian,> 100 µM
same,GI50,OVCAR-3 ovarian,> 100 µM
same,TGI,OVCAR-3 ovarian,> 100 µM
same,GI50,HOP-62 NSCLC,> 100 µM
same,TGI,HOP-62 NSCLC,> 100 µM
same,GI50,KM12 colon,> 100 µM
same,TGI,KM12 colon,> 100 µM
same,GI50,HCC-2998 colon,> 100 µM
same,TGI,HCC-2998 colon,> 100 µM
same,GI50,DU-145 prostate,> 100 µM
same,TGI,DU-145 prostate,> 100 µM
same,GI50,SF-295 CNS,4.76 µM
same,TGI,SF-295 CNS,> 100 µM
same,GI50,M14 melanoma,74.8 µM
same,TGI,M14 melanoma,> 100 µM
same,GI50,NCI/ADR-RES ovarian,40.1 µM
same,TGI,NCI/ADR-RES ovarian,> 100 µM
same,GI50,HCT-15 colon,27.8 µM
same,TGI,HCT-15 colon,> 100 µM
same,GI50,SF-268 CNS,34.7 µM
same,TGI,SF-268 CNS,> 100 µM
same,GI50,SF-539 CNS,1.67 µM
same,TGI,SF-539 CNS,3.07 µM
same,GI50,786-0 renal,1.63 µM
same,TGI,786-0 renal,3.12 µM
same,GI50,MALME-3M melanoma,8.37 µM
same,TGI,MALME-3M melanoma,30.6 µM
same,GI50,UO-31 renal,0.405 µM
same,TGI,UO-31 renal,1.49 µM
same,GI50,MOLT-4 leukemia,22.4 µM
same,TGI,MOLT-4 leukemia,87.6 µM
same,GI50,SW-620 colon,46.9 µM
same,TGI,SW-620 colon,> 100 µM
same,GI50,COLO 205 colon,> 100 µM
same,TGI,COLO 205 colon,> 100 µM
same,GI50,RPMI-8226 leukemia,5.74 µM
same,TGI,RPMI-8226 leukemia,38.3 µM
same,GI50,SK-MEL-5 melanoma,22.6 µM
same,TGI,SK-MEL-5 melanoma,> 100 µM
same,GI50,UACC-62 melanoma,37.2 µM
same,TGI,UACC-62 melanoma,> 100 µM
same,GI50,OVCAR-5 ovarian,11.7 µM
same,TGI,OVCAR-5 ovarian,> 100 µM
same,GI50,NCI-H522 lung,5.23 µM
same,TGI,NCI-H522 lung,23.3 µM
same,GI50,SN12C renal,19.9 µM
same,TGI,SN12C renal,> 100 µM
same,GI50,CAKI-1 renal,32.6 µM
same,TGI,CAKI-1 renal,> 100 µM
same,GI50,OVCAR-8 ovarian,47.8 µM
same,TGI,OVCAR-8 ovarian,> 100 µM
same,GI50,MCF7 breast,21.6 µM
same,TGI,MCF7 breast,> 100 µM
same,GI50,UACC-257 melanoma,78.5 µM
same,TGI,UACC-257 melanoma,> 100 µM
same,GI50,HOP-92 NSCLC,5.71 µM
same,TGI,HOP-92 NSCLC,24.5 µM
same,GI50,PC-3 prostate,36.8 µM
same,TGI,PC-3 prostate,> 100 µM
same,GI50,HS 578T breast,71.4 µM
same,TGI,HS 578T breast,> 100 µM
same,GI50,K-562 leukemia,40.4 µM
same,TGI,K-562 leukemia,> 100 µM
same,GI50,HCT-116 colon,31.9 µM
same,TGI,HCT-116 colon,> 100 µM
same,GI50,T-47D breast,31 µM
same,TGI,T-47D breast,> 100 µM
same,GI50,MDA-MB-231 breast,32.2 µM
same,TGI,MDA-MB-231 breast,> 100 µM
same,GI50,SK-OV-3 ovarian,25.5 µM
same,TGI,SK-OV-3 ovarian,61.6 µM
same,GI50,BT-549 breast,15.5 µM
same,TGI,BT-549 breast,33.9 µM
same,GI50,MDA-MB-435,> 100 µM
same,TGI,MDA-MB-435,> 100 µM
same,GI50,CCRF-CEM leukemia,3.28 µM
same,TGI,CCRF-CEM leukemia,15.6 µM
same,GI50,NCI-H226 lung,13.5 µM
same,TGI,NCI-H226 lung,> 100 µM
same,GI50,A498 renal,> 100 µM
same,TGI,A498 renal,> 100 µM
same,GI50,TK-10 renal,> 100 µM
same,TGI,TK-10 renal,> 100 µM
